Reference: patent US12043599B2, “Herbicidal compounds” (SYNGENTA PARTICIPATIONS AG, priority 2018, dated 2024)

Assays:
Type in all cases: in vivo
Settings in all cases: 250 g/h, evaluated after 13 days
Lolium perenne (LOLPE) [1] = assay: Post-emergence herbicidal glasshouse test, percentage damage
In short: (§1)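 Seeds are sown in pots, grown at 24/16 °C day/night with 14 h light and 65% humidity, then sprayed at day 1 (pre-emergence) or day 8 (post-emergence). The rate is 250 g/h in acetone/water 50:50 with 0.5% Tween 20. Damage is assessed 13 days later on a 1–5 scale.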

[2] = system: Echinochloa crus-galli (ECHCG); assay: as above
In short: as §1

Avena fatua (AVEFA) [3] = assay: as above
In short: as §1

[4] = system: Alopecurus myosuroides (ALOMY); assay: as above
In short: as §1

Setaria faberi (SETFA) [5] = assay: Pre-emergence herbicidal glasshouse test, percentage damage
In short: as §1

Lolium perenne (LOLPE) [6] = assay: as above
In short: as §1

[7] = system: Echinochloa crus-galli (ECHCG); assay: as above
In short: as §1

Avena fatua (AVEFA) [8] = assay: as above
In short: as §1

[9] = system: Alopecurus myosuroides (ALOMY); assay: as above
In short: as §1

Setaria faberi (SETFA) [10] = assay: Post-emergence herbicidal glasshouse test, percentage damage
In short: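 Percentage damage was scored 13 days after treatment on a five-point scale (1=0-19% to 5=80-100%). Treatments were post-emergence sprays on 8-day-old wheat, barley and SETFA plants in a glasshouse (24/16 °C day/night, 14 h light, 65% humidity), using acetone/water 50:50 with 0.5% Tween 20 at the stated rates. Wheat additionally received cloquintocet-mexyl safener at 50 g/ha.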

Compound | LOLPE POST percentage damage (five point scale) (Lolium perenne (LOLPE) [1]) | ECHCG POST percentage damage (five point scale) [2] | AVEFA POST percentage damage (five point scale) (Avena fatua (AVEFA) [3]) | ALOMY POST percentage damage (five point scale) [4] | SETFA PRE percentage damage (five point scale) (Setaria faberi (SETFA) [5]) | LOLPE PRE percentage damage (five point scale) (Lolium perenne (LOLPE) [6]) | ECHCG PRE percentage damage (five point scale) [7] | AVEFA PRE percentage damage (five point scale) (Avena fatua (AVEFA) [8]) | ALOMY PRE percentage damage (five point scale) [9] | SETFA POST percentage damage (five point scale) (Setaria faberi (SETFA) [10])
CC#Cc1cc(C)c(C2C(=O)CC3(CCN(C(=O)NC(=O)c4ccc(C(F)(F)F)cn4)CC3)CC2=O)c(C)c1 [Compound A168] | 4 (4=60-79%) | 5 (5=80-100%) | 4 (4=60-79%) | 4 (4=60-79%) | 5 (5=80-100%) | 4 (4=60-79%) | 5 (5=80-100%) | 4 (4=60-79%) | 4 (4=60-79%) | 4 (4=60-79%)
CC#Cc1cc(C)c(C2=C(OC(=O)OC)CC3(CCN(C(=O)NC(C)(C)C)CC3)CC2=O)c(C)c1 [Compound P13] | 5 (5=80-100%) | 5 (5=80-100%) | 5 (5=80-100%) | 5 (5=80-100%) | 5 (5=80-100%) | 5 (5=80-100%) | 5 (5=80-100%) | 5 (5=80-100%) | 5 (5=80-100%) | 5 (5=80-100%)
CC#Cc1cc(C)c(C2=C(OC(=O)OCCOC)CC3(CCN(C(=O)OCCOC)CC3)CC2=O)c(C)c1 [Compound P52] | 5 (5=80-100%) | 5 (5=80-100%) | 5 (5=80-100%) | 5 (5=80-100%) | 5 (5=80-100%) | 5 (5=80-100%) | 5 (5=80-100%) | 5 (5=80-100%) | 5 (5=80-100%) | 5 (5=80-100%)
CC#Cc1cc(C)c(C2C(=O)CC3(CCN(C(=O)CCCOC)CC3)CC2=O)c(C)c1 [Compound A193] | 5 (5=80-100%) | 5 (5=80-100%) | 5 (5=80-100%) | 5 (5=80-100%) | 5 (5=80-100%) | 5 (5=80-100%) | 5 (5=80-100%) | 5 (5=80-100%) | 5 (5=80-100%) | 5 (5=80-100%)
CC#Cc1cc(C)c(C2C(=O)CC3(CCN(C(=O)c4cc(C(F)(F)F)ccn4)CC3)CC2=O)c(C)c1 [Compound A90] | 5 (5=80-100%) | 5 (5=80-100%) | 5 (5=80-100%) | 5 (5=80-100%) | 5 (5=80-100%) | 5 (5=80-100%) | 5 (5=80-100%) | 5 (5=80-100%) | 5 (5=80-100%) | 5 (5=80-100%)
CC#Cc1cc(C)c(C2C(=O)CC3(CCN(C(=O)CC4OCCO4)CC3)CC2=O)c(C)c1 [Compound A151] | 5 (5=80-100%) | 5 (5=80-100%) | 5 (5=80-100%) | 5 (5=80-100%) | 5 (5=80-100%) | 5 (5=80-100%) | 5 (5=80-100%) | 5 (5=80-100%) | 5 (5=80-100%) | 5 (5=80-100%)
CC#Cc1cc(C)c(C2C(=O)CC3(CCN(c4cncnc4)CC3)CC2=O)c(C)c1 [Compound A87] | 5 (5=80-100%) |  | 5 (5=80-100%) | 5 (5=80-100%) | 5 (5=80-100%) | 5 (5=80-100%) | 5 (5=80-100%) | 3 (3=40-59%) | 4 (4=60-79%) | 5 (5=80-100%)
CC#Cc1cc(C)c(C2C(=O)CC3(CCN(S(=O)(=O)c4cccnc4)CC3)CC2=O)c(C)c1 [Compound A98] | 5 (5=80-100%) |  | 5 (5=80-100%) | 5 (5=80-100%) | 3 (3=40-59%) | 5 (5=80-100%) | 4 (4=60-79%) | 5 (5=80-100%) | 4 (4=60-79%) | 5 (5=80-100%)
CC#Cc1cc(C)c(C2C(=O)CC3(CCN(S(=O)(=O)Cc4ccon4)CC3)CC2=O)c(C)c1 [Compound A97] | 5 (5=80-100%) |  | 5 (5=80-100%) | 5 (5=80-100%) | 5 (5=80-100%) | 5 (5=80-100%) | 5 (5=80-100%) | 5 (5=80-100%) | 4 (4=60-79%) | 5 (5=80-100%)
CC#Cc1cc(C)c(C2=C(OC(=O)c3ncccn3)CC3(CCN(C(=O)c4ncccn4)CC3)CC2=O)c(C)c1 [Compound P23] | 5 (5=80-100%) |  | 5 (5=80-100%) | 5 (5=80-100%) | 5 (5=80-100%) | 5 (5=80-100%) | 5 (5=80-100%) | 4 (4=60-79%) | 5 (5=80-100%) | 5 (5=80-100%)
CC#Cc1cc(C)c(C2C(=O)CC3(CCN(S(=O)(=O)c4ccccc4F)CC3)CC2=O)c(C)c1 [Compound A17] | 5 (5=80-100%) |  | 5 (5=80-100%) | 5 (5=80-100%) | 5 (5=80-100%) | 5 (5=80-100%) | 5 (5=80-100%) | 5 (5=80-100%) | 5 (5=80-100%) | 5 (5=80-100%)
